Measured values published in the supplement of paper PMC10920090.

Assays:
MDA-MB-231 [1] = assay: drug sensitivity score (DSS), cytotoxicity CellTox Green; higher = more cytotoxic; extreme values may be limits of the assay; conditions: 72 h
MDA-MB-231 [2] = assay: drug sensitivity score (DSS), cell viability CellTiter-Glo; higher = more sensitive; extreme values may be limits of the assay; conditions: 72 h
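Wherever drug sensitivity score (DSS), cytotoxicity CellTox Green is given: DSS summarises each dose–response curve by combining IC50, EC50, maximal inhibition and efficacy across drug concentrations.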

Structure (SMILES) | drug sensitivity score (MDA-MB-231 [1]; shRNA: shPPFIA1_1) [DSS] | drug sensitivity score (MDA-MB-231 [1]; shRNA: shScramble) [DSS] | drug sensitivity score (MDA-MB-231 [2]; shRNA: shPPFIA1_1) [DSS] | drug sensitivity score (MDA-MB-231 [2]; shRNA: shScramble) [DSS]
CC(C)[C@H](C(=O)Nc1ccc(C(=O)NO)cc1)c1ccccc1 [AR-42] | 12.6 | 7.5 | 9.3 | 9.5
CNC(=O)c1ccc(N2C(=S)N(c3cnc(C#N)c(C(F)(F)F)c3)C(=O)C23CCC3)cc1F [ARN 509] | 0 | 0 | 0 | 0.4
COc1cc(N2CCC(N3CCN(C)CC3)CC2)ccc1Nc1ncnc(Nc2ccccc2S(=O)(=O)C(C)C)n1 [ASP3026] | 0 | 0 | 0.3 | 3.7
O=C(NC1CCNCC1)c1n[nH]cc1NC(=O)c1c(Cl)cccc1Cl [AT7519] | 8.6 | 5.3 | 5.6 | 12.7
O=C(Nc1c[nH]nc1-c1nc2ccc(CN3CCOCC3)cc2[nH]1)NC1CC1 [AT9283] | 0.2 | 0.8 | 0 | 0.5
CC[C@H](CC#N)OC(=O)N[C@@H](C)c1cccc(NC(=O)Nc2ccc(-c3cnco3)c(OC)c2)c1 [AVN944] | 0 | 0 | 0 | 5.4
COc1cc(N2CCN(C)CC2)ccc1Nc1nccc(-c2cn(C)c3cnccc23)n1 [AZ191] | 0 | 2.9 | 3.6 | 6.8
COc1cc(OC2CCN(C)CC2)ccc1Nc1ncc2c(n1)n(C1CCCC1)c(=O)n2C [AZ 3146] | 0.7 | 2.7 | 4.7 | 8.7
CC(C)Oc1cc(Nc2nc(N[C@@H](C)c3ccc(F)cn3)ncc2Cl)n[nH]1 [AZ-23] | 0 | 1 | 0 | 0
N[C@@H]1CCCN(c2c(/C=C3\SC(=O)NC3=O)cccc2-c2ccccc2)C1 [AZD1208] | 0 | 0 | 0 | 0
Cc1cc(Nc2nc(N[C@@H](C)c3ncc(F)cn3)ncc2Cl)[nH]n1 [AZD1480] | 0 | 0 | 0 | 0
CNC(=O)c1cccc(-c2ccc3c(N4CCOC[C@@H]4C)nc(N4CCOC[C@@H]4C)nc3n2)c1 [AZD2014] | 0 | 0.5 | 0 | 7.9
COc1cc(CCc2cc(NC(=O)c3ccc(N4CC(C)NC(C)C4)cc3)n[nH]2)cc(OC)c1 (configuration not stated) [AZD4547] | 0 | 0 | 0 | 0
CN(C)C(=O)c1ccc(S(=O)(=O)c2ccc(NC(=O)[C@@](C)(O)C(F)(F)F)c(Cl)c2)cc1 [AZD7545] | 0 | 0 | 3.6 | 0
NC(=O)Nc1cc(-c2cccc(F)c2)sc1C(=O)N[C@H]1CCCNC1 [AZD7762] | 2.8 | 0.1 | 4.5 | 5.7
COc1ccc(-c2ccc3c(N4CCOC[C@@H]4C)nc(N4CCOC[C@@H]4C)nc3n2)cc1CO [AZD8055] | 0 | 0 | 2.3 | 9.6
N#Cc1ccc2[nH]c(O)c(-c3ccc(CN4CCOCC4)cn3)c2c1 [AZD-1080] | 0 | 0 | 0 | 0
Cc1ncc(-c2ccnc(Nc3ccc(S(C)(=O)=O)cc3)n2)n1C(C)C [AZD-5438] | 2.7 | 0.5 | 0.1 | 2.3
C[C@@H](Nc1cc(F)cc(F)c1)c1cc(C(=O)N(C)C)cc2c(=O)cc(N3CCOCC3)oc12 [AZD-8186] | 0 | 0 | 0 | 1.7
CCN1CCN(Cc2ccc(Nc3ncc(F)c(-c4cc(F)c5nc(C)n(C(C)C)c5c4)n3)nc2)CC1 [Abemaciclib] | 0.9 | 0 | 0.9 | 0
CN(C)Cc1c(C(=O)NCCOc2ccc(C(=O)NO)cc2)oc2ccccc12 [Abexinostat] | 16.6 | 10.4 | 3.4 | 12.2

Structure (SMILES) | drug sensitivity score (MDA-MB-231 [1]; shRNA: shPPFIA1_1) [DSS] | drug sensitivity score (MDA-MB-231 [1]; shRNA: shScramble) [DSS] | drug sensitivity score (MDA-MB-231 [2]; shRNA: shPPFIA1_1) [DSS] | drug sensitivity score (MDA-MB-231 [2]; shRNA: shScramble) [DSS]
C[C@]12CC[C@H](O)CC1=CC[C@@H]1[C@@H]2CC[C@]2(C)C(c3cccnc3)=CC[C@@H]12 [Abiraterone] | 0 | 0 | 0 | 0.9
Cn1ncc(Cl)c1-c1cc(C(=O)N[C@H](CN)Cc2cccc(F)c2)sc1Cl [Afuresertib] | 0 | 0 | 0.5 | 1.6
COc1cccc2c1C(=O)c1c(O)c3c(c(O)c1C2=O)C[C@@](O)(/C(CO)=N/NC(=O)CCCCCN1C(=O)C=CC1=O)C[C@@H]3O[C@H]1C[C@H](N)[C@H](O)[C@H](C)O1 [Aldoxorubicin] | 0 | 0 | 1.2 | 7.3
CCc1cc2c(cc1N1CCC(N3CCOCC3)CC1)C(C)(C)c1[nH]c3cc(C#N)ccc3c1C2=O [Alectinib] | 0 | 0 | 0 | 0.4
COc1cc(Nc2ncc3c(n2)-c2ccc(Cl)cc2C(c2c(F)cccc2OC)=NC3)ccc1C(=O)O [Alisertib] | 0.7 | 0 | 0.8 | 0.1
Oc1ncnc2[nH]ncc12 [Allopurinol] | 0 | 0 | 0 | 0
Cc1nc(NC(=O)N2CCC[C@H]2C(N)=O)sc1-c1ccnc(C(C)(C)C(F)(F)F)c1 [Alpelisib] | 0 | 0 | 1.5 | 0
CN(C)c1nc(N(C)C)nc(N(C)C)n1 [Altretamine] | 0 | 0 | 0 | 0
CO[C@H]1/C=C\C=C(/C)C(=O)NC2=CC(=O)C(NCCN(C)C)=C(C[C@@H](C)C[C@H](OC)[C@H](O)[C@@H](C)/C=C(\C)[C@@H]1OC(N)=O)C2=O [Alvespimycin] | 0 | 0.6 | 4.8 | 7.2
CN1CC[C@H](c2c(O)cc(O)c3c(=O)cc(-c4ccccc4Cl)oc23)[C@H](O)C1 [Alvocidib] | 11.9 | 7.4 | 10.6 | 15.2
CCC1(c2ccc(N)cc2)CCC(=O)NC1=O (configuration not stated) [Aminoglutethimide] | 0 | 0 | 0 | 0
CN(C)CCN1C(=O)c2cccc3cc(N)cc(c23)C1=O [Amonafide] | 1 | 2.5 | 3.5 | 8.2
COc1cc(NS(C)(=O)=O)ccc1Nc1c2ccccc2nc2ccccc12 [Amsacrine] | 2 | 7.4 | 4.8 | 8.6
S=C(NCc1ccc2c(c1)OCO2)N1CCN(c2ncnc3c2oc2ccccc23)CC1 [Amuvatinib] | 5.5 | 0 | 0.6 | 1.8
O=C1CN2Cc3c(ccc(Cl)c3Cl)N=C2N1 [Anagrelide] | 0 | 0 | 0 | 0
CC(C)(C#N)c1cc(Cn2cncn2)cc(C(C)(C)C#N)c1 [Anastrozole] | 0 | 0 | 0 | 0
N#CC1(c2ccc(NC(=O)c3cccnc3NCc3ccncc3)cc2)CCCC1 [Apatinib] | 0 | 0 | 0 | 0
Cc1c(CN2CCN(C(=O)[C@H](C)O)CC2)sc2c(N3CCOCC3)nc(-c3cnc(N)nc3)nc12 [Apitolisib] | 0 | 0 | 0 | 5.6
CC(C)c1c(C(=O)Nc2ccccc2)c(-c2ccccc2)c(-c2ccc(F)cc2)n1CC[C@@H](O)C[C@@H](O)CC(=O)O [Atorvastatin] | 2 | 0.6 | 2.5 | 7.3
CC(=O)OC[C@H]1O[C@@H]([S-])[C@H](OC(C)=O)[C@@H](OC(C)=O)[C@@H]1OC(C)=O.CCP(CC)CC.[Au+] [Auranofin] | 0 | 0.4 | 3.2 | 4.2
CNC(=O)c1ccccc1Sc1ccc2c(/C=C/c3ccccn3)n[nH]c2c1 [Axitinib] | 0 | 0 | 0 | 0.2

Structure (SMILES) | drug sensitivity score (MDA-MB-231 [1]; shRNA: shPPFIA1_1) [DSS] | drug sensitivity score (MDA-MB-231 [1]; shRNA: shScramble) [DSS] | drug sensitivity score (MDA-MB-231 [2]; shRNA: shPPFIA1_1) [DSS] | drug sensitivity score (MDA-MB-231 [2]; shRNA: shScramble) [DSS]
Nc1ncn([C@@H]2O[C@H](CO)[C@@H](O)[C@H]2O)c(=O)n1 [Azacitidine] | 0 | 0 | 0 | 1.1
Cc1cc(-c2nc(-c3ccc(OC(F)(F)F)cc3)no2)nn1Cc1ccnc(N2CCN(C3CC3)CC2)c1 [BAY 87-2243] | 0 | 0 | 14.7 | 13
Nc1nc(Nc2ccc3c(c2)CC[C@@H](N2CCCC2)CC3)nn1-c1cc2c(nn1)-c1ccccc1CCC2 [BGB324] | 4.4 | 6.1 | 10.6 | 9.5
CC[C@@H]1C(=O)N(C)c2cnc(Nc3ccc(C(=O)NC4CCN(C)CC4)cc3OC)nc2N1C1CCCC1 [BI 2536] | 0.3 | 0 | 0 | 11.3
COc1c(C)cnc(Cn2cnc3c(Cl)nc(N)nc32)c1C [BIIB021] | 3.1 | 2.8 | 10.8 | 15.9
O=C(Nc1cccc(Nc2ncc(Br)c(NCCc3cnc[nH]3)n2)c1)N1CCCC1 [BX-912] | 1.8 | 3.1 | 3.5 | 5.7
Cc1ccc(NC(=O)c2ccc(CN3CC[C@H](N(C)C)C3)c(C(F)(F)F)c2)cc1Nc1nccc(-c2cncnc2)n1 [Bafetinib] | 0.6 | 0.5 | 0 | 4.3
CCS(=O)(=O)N1CC(CC#N)(n2cc(-c3ncnc4[nH]ccc34)cn2)C1 [Baricitinib] | 0 | 0 | 0.9 | 0.9
O=C(/C=C/c1cccc(S(=O)(=O)Nc2ccccc2)c1)NO [Belinostat] | 14.9 | 8.1 | 8.7 | 10.2
Cn1c(CCCC(=O)O)nc2cc(N(CCCl)CCCl)ccc21 [Bendamustine] | 0 | 0 | 0 | 0
N#CC(c1ccnc(OCc2ccc(CN3CCOCC3)cc2)n1)c1nc2ccccc2s1 (configuration not stated) [Bentamapimod] | 0 | 0 | 1.6 | 3.7
C=C(c1ccc(C(=O)O)cc1)c1cc2c(cc1C)C(C)(C)CCC2(C)C [Bexarotene] | 0 | 0 | 0 | 0
CC(O)(CS(=O)(=O)c1ccc(F)cc1)C(=O)Nc1ccc(C#N)c(C(F)(F)F)c1 (configuration not stated) [Bicalutamide] | 0 | 0 | 0 | 0.2
CCNC(=O)CCC/C=C\C[C@@H]1[C@@H](/C=C/[C@@H](O)CCc2ccccc2)[C@H](O)C[C@@H]1O [Bimatoprost] | 0 | 0 | 0 | 0
Cn1cnc2c(F)c(Nc3ccc(Br)cc3F)c(C(=O)NOCCO)cc21 [Binimetinib] | 0 | 2.2 | 0 | 2.7
CC[C@H](NC(=O)[C@H](C)NC)C(=O)N1C[C@@H](O)C[C@H]1Cc1c(-c2[nH]c3cc(F)ccc3c2C[C@@H]2C[C@H](O)CN2C(=O)[C@H](CC)NC(=O)[C@H](C)NC)[nH]c2cc(F)ccc12 [Birinapant] | 31.3 | 22.4 | 20.3 | 13.2
Cc1c(N)nc([C@H](CC(N)=O)NC[C@H](N)C(N)=O)nc1C(=O)N[C@H](C(=O)N[C@H](C)[C@@H](O)[C@H](C)C(=O)N[C@H](C(=O)NCCc1nc(-c2nc(C(=O)NCCC[S+](C)C)cs2)cs1)[C@@H](C)O)[C@@H](OC1OC(CO)C(O)C(O)C1OC1OC(CO)C(O)C(OC(N)=O)C1O)c1cnc[nH]1 (some centres not stated) [Bleomycin] | 0.1 | 0 | 0 | 3.5
CC(C)C[C@H](NC(=O)[C@H](Cc1ccccc1)NC(=O)c1cnccn1)B(O)O [Bortezomib] | 26.8 | 24.3 | 21.3 | 23.1
COc1cc(Nc2c(C#N)cnc3cc(OCCCN4CCN(C)CC4)c(OC)cc23)c(Cl)cc1Cl [Bosutinib] | 6.2 | 6.3 | 6.3 | 9.3
COc1cc(N2CCC(N3CCN(C)CC3)CC2)ccc1Nc1ncc(Cl)c(Nc2ccccc2P(C)(C)=O)n1 [Brigatinib] | 1.8 | 3.6 | 6.4 | 0.7
Cc1cc2c(F)c(Oc3ncnn4cc(OC[C@@H](C)O)c(C)c34)ccc2[nH]1 [Brivanib] | 0 | 0 | 0 | 0
